Source: patent US20190021976A1, “COMPOSITION FOR PREVENTING, IMPROVING OR TREATING PHOTOAGING OF SKIN COMPRISING DHPV” (SUNGKWANG MEDICAL FOUNDATION, priority 2016, published 2019)

What was measured:
IVL (involucrin) = assay: Western blot of IVL (involucrin) expression in UV-irradiated human skin cells; assay type: cell-based
Protocol: (§1) First, aging was induced by irradiation with 0.1 J/cm^2 UV on human skin cells (hypodermis and epidermis were separated using HaCaT cell line purchased from ATCC and human body derived Foreskin, and primary cell culture was used). Next, DHPV, a metabolite of cacao, prepared in 1-1 was treated 0.5, 1 nM, respectively, and cells were obtained.
The expression level of IVL (involucrin) which is one of aging markers of epidermal cells was confirmed by Western blot. Cells were degraded using cell dissolution buffer containing protease inhibitor cocktail kit (P3100-005; GenDEPOT, Barker, Tex.), and phosphatase inhibitor (sc-45065; Santa Cruz Biotechnology, Santa Cruz, Calif.) (#9803; Cell SignalingTechnology, Danvers, Mass.). The aliquot containing 25 ug of cell lysates was separated by electrophoresis on SDS-polyacrylamide gel, and then transferred to nitrocellulose membrane (Amersham, Buckinghamshire, UK) for 180 min at 75 V and […] on a transfer buffer (25 mM Tris, 192 mM glycine, 20% [v/v] methanol [pH 8.3]). The membrane was blocked with PBS of 3% (w/v) BSA containing 0.1% (v/v) Tween-20 for 60 min, and then cultured with anti-involucrin (Santacruz, sc28557) antibody. HRP-combined goat anti-rabbit IgG (1:1000; sc 2004, SantaCruz) was used as a secondary antibody. ECL lumi Femto solution A/B (Dogen, Seoul, Korea) was used to develop blots.

PFN1 = assay: Western blot of PFN1 expression in UV-irradiated human skin cells; assay type: cell-based; conditions: 0.1 J/cm^2 UV, DHPV 0.5, 1 nM, FIG. 2
Protocol: as §1
The expression level of PFN1 as a novel aging marker of epidermal cells was confirmed with Western blot by the same method as the above method except using anti-PFN1 (Abcam, ab118984) antibody instead of anti-involucrin (Santacruz, sc28557) antibody and HRP-combined goat anti-mouse IgG (1:3000; sc 2005, SantaCruz) instead of HRP-combined goat anti-rabbit IgG (1:1000; sc 2004, SantaCruz).

MMP-1 = MMP-1 real time PCR in UVB-irradiated human derived hypodermis fibroblasts; assay type: cell-based; conditions: medium containing DHPV for 24 hrs, FIG. 3A
Protocol: (§2) First, human derived hypodermis fibroblasts (hypodermis and epidermis were separated using human body derived Foreskin and the primary cell culture was used) were cultured in the DMEM medium containing 10% FBS (fetal bovine serum), and then cultured in serum free media for 24 hrs and UVB was irradiated. Next, cells were cultured in a medium containing serum or a medium containing 1-41M DHPV for 24 hrs, thereby collecting cells.
In order to confirm changes of mRNA expression level of MMP-1, mRNA was obtained using RNAiso Plus (Takara Bio Inc., Shiga, Japan). Next, CDNA was synthesized and prepared using PrimeScript™ 1st Plus (Takara Bio Inc., Shiga, Japan), and real time PCR was conducted using IQ SYBR (Bio-Rad Laboratories). The primer sequences used in conducting PCR were as same as the following Table 1.

AP-1 = AP-1 luciferase reporter gene assay in UVB-irradiated hypodermis fibroblasts; assay type: cell-based, human; conditions: DHPV treatment, FIG. 3B
Protocol: as §2
AP-1 was obtained by inoculating pGF-AP1-mCMV-EF1-Puro vector (System Biosciences, CA) and a package vector, pMD2.0G and psPAX (Addgene Inc, Cambridge, Mass.) to HEK293T cell and in 36 hrs, viral particles were obtained using […] injection filter, in order to measure activity changes by UVB irradiation through luciferase reporter gene assay. Next, it was inoculated to hypodermis fibroblasts, and cells that injection with puromycin (Sigma, MO, […]) was successes were obtained. Then the activity of AP-1 was measured by using luciferase assay kit (Promega, Madison, Wis.) after culturing cells in the same manner with the hypodermal fibroblast culturing method and treating with DHPV.

[1] = tested on: Involucrin (IVL) DNA promoter region; assay: Methylation specific PCR of IVL promoter in UV-irradiated human skin cells; assay type: cell-based; conditions: FIG. 4
Text: The aging was induced by irradiation with 0.1 J/cm^2 UV on human skin cells (hypodermis and epidermis were separated using HaCaT cell line purchased from ATCC and human body derived Foreskin, and primary cell culture was used). DNA of the cells was extracted using NucleoSin® Tissue Kit (Macherey-Nagel, Düren, Germany). The extracted DNA was quantified using Nano Drop and its quality was confirmed. In the extracted DNA, unmethylated Cytosine residues were converted to Uracil residues by treating Bisulfite using EZ DNA Methylation-Lightning™ Kit (Zymoresearch, CA, USA) for methylation analysis.
Distilled water was added to Bisulfited DNA 100 ng, primer pair (20 pmole) respectively, 1 uL, TaKaRa EpiTaq HS (5 U/μl) 0.25 uL, 10× EpiTaq PCR Buffer (Mg2^+ free) 5 uL, 25 mM MgCl2 5 uL, dNTP Mixture (2.5 mM each) 6 uL to be 50 uL of the final volume, and then after reacting for […] at 98° C., the procedure of 10 sec at 98° C., 1 min at 55° C., and 30 sec at 72° C. as 40 cycles was repeated and reacted. Then, after extending for 5 min at 72° C., the result was analyzed in 2% (w/v) agarose gel.
Methylation of IVL promoter by DHPV and relative methylation tendency were analyzed by methylation specific PCR which can relatively compare methylation or non-methylation of genes according to band intensity on the electrophoresis. […]

[2] = tested on: HaCaP cell line and hypodermal cells isolated from human derived foreskin; assay: Biostability: cell viability (Ez-cytox); assay type: cell-based; conditions: FIG. 5
Protocol: In order to evaluate DHPV biostability, HaCaP cell line and hypodermal cells isolated from human derived foreskin were inoculated (2×10^4 cell each) and cultured on the 24 well plate and stabilized. Then, the cells were cultured in serum free media for 24 hrs and 48 hrs.

O=C1CCC(Cc2ccc(O)c(O)c2)O1 (centres unmarked) [DHPV, 5-(3′,4′-Dihydroxyphenyl)-Γ-valerolactone]
concentration exhibiting excellent skin aging-preventing function (IVL (involucrin); based on skin cells): 1 nM
expression level of the IVL marker (amount of UV-increased IVL) (IVL (involucrin); human skin cells, 0.1 J/cm^2 UV, DHPV 0.5, 1 nM, FIG. 2): reduced in a concentration-dependent manner
expression level of the PFN1 marker (PFN1): increased in a concentration-dependent manner
mRNA expression of MMP-1 (MMP-1): recovered similarly to the control group
activity of AP-1 (AP-1): recovered similarly to the control group
methylation of Involucrin (IVL) DNA promoter region induced by photoaging ([1]; 0.1 J/cm^2 UV, methylation specific PCR): inhibited methylation
intensity of methylation band ([1]; UV treated cells when treating DHPV, electrophoresis): decreased
biostability (cell viability) [2]: shown similarly to that of control group
